This is an account of results in PubChem BioAssay (NCI).

Each structure is given as a SMILES string.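 All cell lines were grown in 96-well plates and treated with compound for 48 hours. GI50 marks 50% less growth. The concentration for full growth arrest is given as TGI.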

Test systems include A549 NSCLC; COLO 205 colon; KM12 colon; NCI-H460 lung; NCI/ADR-RES ovarian; OVCAR-3 ovarian; OVCAR-8 ovarian; SF-268 CNS; SF-295 CNS; SN12C renal.
Common to all, as to assay: growth of human tumour cells (NCI), 48 h

For the molecule `C1=C2C3=[N+](CCCCC3)CC2Cc2ccsc21` (configuration not stated), the TGI with A549 NSCLC, with COLO 205 colon, with KM12 colon, in the assay with NCI-H460 lung, with NCI/ADR-RES ovarian and with OVCAR-3 ovarian was greater than 100 µM throughout. In addition, the TGI in the assay with OVCAR-8 ovarian, in the assay with SF-268 CNS, in the assay on SF-295 CNS and with SN12C renal was greater than 100 µM throughout.

For the molecule `C[C@]12CCC(=O)[C@@H](CCC3=CC(=O)C=CC3=O)[C@@H]1CCC2=O`, the TGI is greater than 54.5 µM in the assay on A549 NSCLC; 31.2 µM in the assay with COLO 205 colon; 32 µM in the assay with KM12 colon; 31.4 µM in the assay with NCI-H460 lung; greater than 100 µM with NCI/ADR-RES ovarian; 36 µM with OVCAR-3 ovarian. The TGI was greater than 69.5 µM with OVCAR-8 ovarian, 39.5 µM in the assay with SF-268 CNS, 36.7 µM in the assay on SF-295 CNS and greater than 100 µM in the assay with SN12C renal.

With `N#CC1(O)CCCCCCCCCCC1`, the TGI with A549 NSCLC, in the assay on COLO 205 colon, in the assay with KM12 colon, with NCI-H460 lung, in the assay on NCI/ADR-RES ovarian and with OVCAR-3 ovarian was greater than 100 µM in each case. The TGI in the assay on OVCAR-8 ovarian, in the assay with SF-268 CNS, in the assay with SF-295 CNS and in the assay with SN12C renal was greater than 100 µM throughout.

As for `COc1cc2cc(C(=O)N3C[C@H](CCl)c4c3cc(N)c3ccccc43)[nH]c2c(OC)c1OC`, the TGI was greater than 50 µM in the assay with A549 NSCLC; less than 0.005 µM with COLO 205 colon; 0.0922 µM with KM12 colon; 0.0067 µM in the assay on NCI-H460 lung; 7.69 µM with NCI/ADR-RES ovarian; 0.936 µM with OVCAR-3 ovarian. Besides, the TGI with OVCAR-8 ovarian is greater than 50 µM; in the assay with SF-268 CNS it was 1.74 µM; in the assay with SF-295 CNS, greater than 50 µM; in the assay on SN12C renal, 0.0582 µM. Besides, the GI50 was less than 0.005 µM with COLO 205 colon; 0.0115 µM in the assay on KM12 colon; 0.005 µM with NCI-H460 lung; 0.005 µM in the assay on OVCAR-3 ovarian; 0.005 µM in the assay with SF-268 CNS; 0.005 µM with SF-295 CNS. Also, the GI50 with SN12C renal was 0.00698 µM.

As for `CCC(CO)Nc1nc(NCc2ccccc2)c2ncn(C(C)C)c2n1` (configuration not stated), the TGI was greater than 100 µM in the assay on A549 NSCLC; 34.1 µM with COLO 205 colon; 36.3 µM with KM12 colon; greater than 100 µM with NCI-H460 lung; 42.3 µM with NCI/ADR-RES ovarian; 37.9 µM in the assay on OVCAR-3 ovarian. Besides, the TGI in the assay on OVCAR-8 ovarian is 57.5 µM; in the assay with SF-268 CNS it was 40.4 µM; in the assay with SF-295 CNS, 50.9 µM; with SN12C renal it was greater than 100 µM.

For the molecule `CCCCSc1nsc(N(C(=O)c2ccccc2)C(=O)c2ccccc2)n1`, the TGI in the assay on A549 NSCLC is greater than 100 µM; in the assay with COLO 205 colon, 41.5 µM; in the assay with KM12 colon, greater than 100 µM; with NCI-H460 lung it was 76.9 µM; with NCI/ADR-RES ovarian, greater than 100 µM; in the assay on OVCAR-3 ovarian it was 61.1 µM. In addition, the TGI in the assay with OVCAR-8 ovarian, in the assay with SF-268 CNS, with SF-295 CNS and in the assay with SN12C renal was greater than 100 µM throughout.

For the molecule `CS(=O)(=O)Nc1ccc2c(c1)N(S(C)(=O)=O)CC2CCl` (configuration not stated), the TGI in the assay with A549 NSCLC, in the assay with COLO 205 colon, with KM12 colon, with NCI-H460 lung, in the assay with NCI/ADR-RES ovarian and in the assay on OVCAR-3 ovarian was greater than 100 µM throughout. In addition, the TGI in the assay with OVCAR-8 ovarian, with SF-268 CNS, in the assay with SF-295 CNS and in the assay on SN12C renal was greater than 100 µM in each case.

Turning to `COC(=O)Cc1ccc2c(cnn2-c2ccccc2)c1OC`, the TGI in the assay with A549 NSCLC, with COLO 205 colon, in the assay with KM12 colon, in the assay with NCI-H460 lung, in the assay on NCI/ADR-RES ovarian and in the assay on OVCAR-3 ovarian was greater than 10 µM each time. The TGI in the assay with OVCAR-8 ovarian, in the assay on SF-268 CNS, in the assay on SF-295 CNS and in the assay with SN12C renal was greater than 10 µM in each case.

Regarding `COc1ccc(Nc2nc(N)c(C(=O)c3c[nH]c4ccccc34)s2)cc1`, the TGI in the assay on A549 NSCLC is greater than 61.3 µM; with COLO 205 colon, 4.06 µM; in the assay with KM12 colon, 26.1 µM; in the assay with NCI-H460 lung, 6.83 µM; with NCI/ADR-RES ovarian, 19.4 µM; in the assay on OVCAR-3 ovarian, 4.14 µM. Further, the TGI with OVCAR-8 ovarian, in the assay on SF-268 CNS, in the assay on SF-295 CNS and in the assay on SN12C renal was greater than 100 µM each time.

`Cc1cc2c(O)c(c1)CN(CC(=O)O)Cc1cc(C)cc(c1O)CN(CC(=O)O)Cc1cc(C)cc(c1O)CN(CC(=O)O)C2`: the TGI with A549 NSCLC, in the assay with COLO 205 colon, in the assay with KM12 colon, in the assay with NCI-H460 lung, in the assay on NCI/ADR-RES ovarian and in the assay with OVCAR-3 ovarian was greater than 100 µM each time. In addition, the TGI in the assay with OVCAR-8 ovarian, in the assay with SF-268 CNS, with SF-295 CNS and in the assay with SN12C renal was greater than 100 µM each time.

With `O=C(O)c1cccc2cccc(-c3cccc4cccc(C(=O)O)c34)c12`, the TGI with A549 NSCLC, in the assay on COLO 205 colon, in the assay on KM12 colon, in the assay with NCI-H460 lung, in the assay on NCI/ADR-RES ovarian and in the assay with OVCAR-3 ovarian was greater than 100 µM throughout. Further, the TGI in the assay on OVCAR-8 ovarian, with SF-268 CNS, in the assay with SF-295 CNS and with SN12C renal was greater than 100 µM in each case.

With `C=C1OC(c2ccccc2NC)=NC12CCCCC2`, the TGI in the assay on A549 NSCLC, with COLO 205 colon, in the assay on KM12 colon, in the assay with NCI-H460 lung, in the assay on NCI/ADR-RES ovarian and in the assay with OVCAR-3 ovarian was greater than 100 µM in each case. Also, the TGI with OVCAR-8 ovarian, in the assay with SF-268 CNS, in the assay on SF-295 CNS and with SN12C renal was greater than 100 µM each time.

With `OCCOCn1nncc1Cn1ncc2c(SCc3ccccc3)ncnc21`, the TGI in the assay with A549 NSCLC, with COLO 205 colon, in the assay on KM12 colon, in the assay on NCI-H460 lung, in the assay with NCI/ADR-RES ovarian and in the assay on OVCAR-3 ovarian was greater than 100 µM each time. Moreover, the TGI in the assay on OVCAR-8 ovarian, in the assay on SF-268 CNS, in the assay on SF-295 CNS and with SN12C renal was greater than 100 µM throughout.

As to `Cc1[nH]c(=O)nc(NCCNCCO)c1C(=O)Nc1cccc2cc3ccccc3cc12`, the TGI with A549 NSCLC, in the assay on COLO 205 colon, with KM12 colon, in the assay on NCI-H460 lung, in the assay with NCI/ADR-RES ovarian and in the assay on OVCAR-3 ovarian was greater than 100 µM throughout. In addition, the TGI in the assay with OVCAR-8 ovarian, in the assay with SF-268 CNS, in the assay with SF-295 CNS and with SN12C renal was greater than 100 µM in each case.

Consider `O=c1[nH]c2nc3ccccc3nc2[nH]c1=O`, for which the TGI in the assay on A549 NSCLC, in the assay on COLO 205 colon, in the assay with KM12 colon, with NCI-H460 lung, in the assay with NCI/ADR-RES ovarian and in the assay with OVCAR-3 ovarian was greater than 100 µM in each case. For the same molecule, the TGI with OVCAR-8 ovarian, in the assay on SF-268 CNS, in the assay on SF-295 CNS and in the assay with SN12C renal was greater than 100 µM throughout.
